According to ChEMBL document CHEMBL5236572, “Bioactive Aurones, Indanones, and Other Hemiindigoid Scaffolds: Medicinal Chemistry and Photopharmacology Perspectives” (J Med Chem, 2022):
Values after ≈ are worked out from the molar mass of the structure shown.

How the values were obtained:
[1] = system: Mycobacterium tuberculosis; assay: Antimicrobial activity against Mycobacterium tuberculosis H37Rv assessed as reduction in bacterial growth incubated for 7 days by broth micro dilution method; type: functional; settings: 168 h, time 7 day
[2] = Cytotoxicity against human HEK293T cells; type: toxicity, cell-based, HEK-293T
[3] = Cytotoxicity against human HeLa cells assessed as reduction in cell viability; type: toxicity, cell-based
[4] = system: Trypanosoma brucei brucei; assay: Antitrypanosomal activity against Trypanosoma brucei brucei assessed as reduction in parasite viability by resorufin based fluorescence assay; type: functional, organism-based
[5] = Inhibition of equine serum BuChE using butyrylthiocholine iodide as substrate preincubated for 15 mins followed by substrate addition and measured after 2 mins by DTNB reagent based Ellman's method
Acetylcholinesterase = Acetylcholinesterase (Homo sapiens, UniProt P22303); assay: Inhibition of human AchE by Ellman's method
Leishmania major [6] = assay: Antileishmanial activity against promastigote stage Leishmania major MHOM/JL/80/Friedlin overexpressing ABCI4 infected in human THP-1 cells assessed as reduction in parasite growth incubated for 72 hrs by MTT assay; type: functional, organism-based; settings: THP-1, 72 h
THP-1 = assay: Cytotoxicity against human THP-1 cells assessed as reduction in cell viability incubated for 72 hrs by MTT assay; type: functional, cell-based; settings: THP-1, 72 h
Leishmania major [7] = assay: Antileishmanial activity against promastigote stage Leishmania major MHOM/JL/80/Friedlin overexpressing ABCI4 infected in human THP-1 cells assessed as fold change in reduction in parasite growth incubated for 72 hrs in presence of SbIII by MTT assay; type: functional
[8] = Binding affinity to Helicobacter pylori HTRA by SPR analysis
[9] = system: Mycobacterium tuberculosis; assay: Antimicrobial activity against Mycobacterium tuberculosis assessed as reduction in bacterial growth by Alamar Blue fluorescence assay; type: functional, organism-based
Staphylococcus aureus = assay: Antimicrobial activity against Staphylococcus aureus MTCC96 assessed as bacterial growth inhibition incubated for 24 hrs by well diffusion method; type: functional
Escherichia coli = assay: Antimicrobial activity against Escherichia coli MTCC43 assessed as bacterial growth inhibition incubated for 24 hrs by well diffusion method; type: functional
Proteus vulgaris = assay: Antimicrobial activity against Proteus vulgaris assessed as bacterial growth inhibition incubated for 24 hrs by well diffusion method; type: functional
Candida albicans = assay: Antifungal activity against Candida albicans assessed as reduction in fungal growth by well diffusion method; type: functional
Bacillus subtilis = assay: Antimicrobial activity against Bacillus subtilis MTCC 121 assessed as bacterial growth inhibition incubated for 24 hrs by well diffusion method; type: functional
Aspergillus flavus [10] = assay: Antifungal activity against Aspergillus flavus NRRL-3357 assessed as reduction in fungal growth by well diffusion method; type: functional
PC-3 = assay: Antiproliferative activity against doxorubicin resistant human PC-3 cells assessed as inhibition of cell proliferation by Beckman Coulter analysis; type: functional, cell-based
Schistosoma mansoni [11] = assay: Antischistosomal activity against adult stage of Schistosoma mansoni BH assessed assessed as inhibition of parasite death at 25 uM incubated for 24 hrs by light microscopy; type: functional
[12] = Cytotoxicity against mouse Peritoneal macrophage incubated for 24 hrs by MTT assay; type: toxicity, cell-based; settings: peritoneal macrophages
Mucor mucedo = assay: Antifungal activity against Mucor mucedo assessed as reduction in fungal growth incubated for 24 hrs by disk diffusion assay; type: functional
Aspergillus niger = assay: Antifungal activity against Aspergillus niger assessed as reduction in fungal growth incubated for 24 hrs by disk diffusion assay; type: functional
Aspergillus flavus [13] = assay: Antifungal activity against Aspergillus flavus assessed as reduction in fungal growth incubated for 24 hrs by disk diffusion assay; type: functional
Rhizopus arrhizus = assay: Antifungal activity against Rhizopus oryzae assessed as reduction in fungal growth incubated for 24 hrs by disk diffusion assay; type: functional
[14] = biological target: T1, Amine oxidase [flavin-containing] A (Homo sapiens, UniProt P21397); assay: Inhibition of recombinant human MAO-A using p-tyramine as substrate by Amplex-Red MAO assay
T1 sequence (P21397 whole entry): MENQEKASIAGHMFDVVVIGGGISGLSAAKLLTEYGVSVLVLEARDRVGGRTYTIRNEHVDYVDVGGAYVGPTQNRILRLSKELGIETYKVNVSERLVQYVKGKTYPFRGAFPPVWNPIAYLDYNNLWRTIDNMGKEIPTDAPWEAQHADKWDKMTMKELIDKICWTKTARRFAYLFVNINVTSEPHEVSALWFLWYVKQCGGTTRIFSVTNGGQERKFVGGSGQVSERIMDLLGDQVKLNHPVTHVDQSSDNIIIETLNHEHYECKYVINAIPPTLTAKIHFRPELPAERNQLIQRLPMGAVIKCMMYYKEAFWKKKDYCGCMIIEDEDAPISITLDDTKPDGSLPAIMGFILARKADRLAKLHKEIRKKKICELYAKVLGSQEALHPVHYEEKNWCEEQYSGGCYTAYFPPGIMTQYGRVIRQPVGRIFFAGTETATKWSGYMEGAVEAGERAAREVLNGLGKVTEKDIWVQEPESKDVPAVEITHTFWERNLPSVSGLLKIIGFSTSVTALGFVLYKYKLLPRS

[15] = biological target: T2, Amine oxidase [flavin-containing] B (Homo sapiens, UniProt P27338); assay: Inhibition of recombinant human MAO-B using p-tyramine as substrate by Amplex-Red MAO assay
T2 sequence (P27338 whole entry): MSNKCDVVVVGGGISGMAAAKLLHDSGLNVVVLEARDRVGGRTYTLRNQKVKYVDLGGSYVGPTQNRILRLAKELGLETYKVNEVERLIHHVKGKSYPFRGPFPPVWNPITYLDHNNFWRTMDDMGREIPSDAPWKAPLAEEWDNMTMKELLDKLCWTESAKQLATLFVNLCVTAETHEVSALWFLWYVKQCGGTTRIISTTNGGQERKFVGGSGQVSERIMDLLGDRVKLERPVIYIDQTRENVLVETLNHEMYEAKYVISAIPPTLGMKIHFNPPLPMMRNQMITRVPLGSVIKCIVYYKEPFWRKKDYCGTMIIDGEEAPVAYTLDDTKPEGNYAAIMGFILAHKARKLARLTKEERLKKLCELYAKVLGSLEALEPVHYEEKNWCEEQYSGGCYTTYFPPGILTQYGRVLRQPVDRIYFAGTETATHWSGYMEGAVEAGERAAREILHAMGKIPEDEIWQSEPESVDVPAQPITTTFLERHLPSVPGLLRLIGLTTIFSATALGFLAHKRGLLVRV

Schistosoma mansoni [16] = assay: Antischistosomal activity against adult stage of Schistosoma mansoni assessed assessed as inhibition of parasite death; type: functional, organism-based
[17] = Cytotoxicity against mouse Peritoneal macrophage; type: toxicity, cell-based; settings: peritoneal macrophages

Sequence of Acetylcholinesterase (P22303 whole entry): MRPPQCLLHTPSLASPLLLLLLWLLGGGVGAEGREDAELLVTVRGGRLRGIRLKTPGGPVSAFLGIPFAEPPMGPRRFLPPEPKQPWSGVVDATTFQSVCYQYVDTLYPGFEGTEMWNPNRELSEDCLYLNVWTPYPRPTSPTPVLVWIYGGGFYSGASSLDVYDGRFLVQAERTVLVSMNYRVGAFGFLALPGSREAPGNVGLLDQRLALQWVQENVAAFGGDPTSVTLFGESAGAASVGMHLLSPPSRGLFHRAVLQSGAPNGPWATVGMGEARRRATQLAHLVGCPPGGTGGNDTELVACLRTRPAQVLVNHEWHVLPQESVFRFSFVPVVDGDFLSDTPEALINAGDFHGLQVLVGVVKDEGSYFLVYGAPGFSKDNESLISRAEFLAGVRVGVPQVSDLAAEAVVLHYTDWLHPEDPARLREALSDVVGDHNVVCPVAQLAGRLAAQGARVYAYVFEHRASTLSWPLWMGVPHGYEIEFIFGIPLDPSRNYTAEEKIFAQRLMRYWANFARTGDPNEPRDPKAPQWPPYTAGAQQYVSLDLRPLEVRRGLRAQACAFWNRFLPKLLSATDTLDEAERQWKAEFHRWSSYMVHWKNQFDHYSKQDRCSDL

Q: For CC(=O)N1/C(=C\c2ccc(-c3cnc4ccccc4c3)cc2)C(=O)c2ccccc21, which MIC90 [1] is on record?
A: 0.65 µM (≈ 0.254 µg/mL)

Q: What about the MIC99 [1] of the same compound?
A: 0.74 µM (≈ 0.289 µg/mL)

Q: What about the CC50 [2] of the same compound?
A: 0.019 µM

Q: With O=C1/C(=C/c2cccnc2Cl)Cc2ccccc21 as the compound, how does the CC50 [3] read?
A: > 100 µM

Q: What about the IC50 [4] of the same compound?
A: 0.55 µM

Q: For COc1cc2c(cc1OC)C(=O)/C(=C/c1cc[n+](Cc3ccccc3F)cc1)O2, which IC50 [5] is on record?
A: 1.62 µM

Q: With COc1cc2c(cc1OC)C(=O)/C(=C/c1ccc(OCCN3CCCCC3)cc1)C2 as the compound, how does the IC50 (Acetylcholinesterase) read?
A: 0.3 µM

Q: Which results are given for COc1ccc(OC)c(/C=C2\Oc3cc(O)cc(O)c3C2=O)c1?
A: EC50 (Leishmania major [6]): 190 µM; EC50 (THP-1): 350 µM; fold change (FC) (Leishmania major [7]): 6

Q: With O=C(O)c1cc(-c2ccc(/C=C3\Sc4ccccc4C3=O)o2)ccc1Cl as the compound, how does the Kd [8] read?
A: 12 µM

Q: Which IC50 [9] does the source give for CCOc1ccc2c(c1)O/C(=C\c1cccc(OCC(=O)OC)c1)C2=O here?
A: 4.8 µM

Q: Which MIC (Staphylococcus aureus) does the source give for O=C1/C(=C/c2ccc(Br)cc2)Oc2c1ccc1c2C=CCO1 here?
A: 4.4 µM (≈ 1.56 µg/mL)

Q: What about the MIC (Escherichia coli) of the same compound?
A: 4.4 µM (≈ 1.56 µg/mL)

Q: And the MIC (Proteus vulgaris)?
A: 4.4 µM (≈ 1.56 µg/mL)

Q: And the MIC (Candida albicans)?
A: 18 µM (≈ 6.39 µg/mL)

Q: And the MIC (Bacillus subtilis)?
A: 4.4 µM (≈ 1.56 µg/mL)

Q: And the MIC (Aspergillus flavus [10])?
A: 18 µM (≈ 6.39 µg/mL)

Q: Which IC50 (PC-3) does the source give for COc1ccc(/C=C2\Oc3c(ccc(OC(C)=O)c3COC(C)=O)C2=O)cc1OC here?
A: 0.74 µM

Q: Which inhibition at 25 µM (Schistosoma mansoni [11]) does the source give for O=C1/C(=C/c2cccs2)Oc2ccccc21 here?
A: 50%

Q: And the CC50 at 24 h [12]?
A: > 150 µM

Q: Which MIC (Mucor mucedo) does the source give for O=C1/C(=C/c2ccncc2)Cc2ccc3c(c21)CCO3 here?
A: 60 µM (≈ 15.8 µg/mL)

Q: What about the MIC (Aspergillus niger) of the same compound?
A: 60 µM (≈ 15.8 µg/mL)

Q: What about the MIC (Aspergillus flavus [13]) of the same compound?
A: 60 µM (≈ 15.8 µg/mL)

Q: And the MIC (Rhizopus arrhizus)?
A: 60 µM (≈ 15.8 µg/mL)

Q: For O=C1/C(=C/c2c3ccccc3cc3ccccc23)Oc2ccccc21, which Ki [14] is on record?
A: 0.11 µM

Q: And the Ki [15]?
A: 0.2 µM

Q: With Cn1cc(/C=C2\Oc3ccccc3C2=O)c2ccccc21 as the compound, how does the EC50 (Schistosoma mansoni [16]) read?
A: 34 µM

Q: What about the CC50 [17] of the same compound?
A: > 150 µM
